Counter-ions that a name gives are not always drawn. Like-named read-outs stand apart in the source and are kept apart here.
Target: MAP4K-1 enzyme (Homo sapiens, UniProt Q92918)
Test: FRET one step binding assay (tracer displacement)
Settings: for inhibition at 1 µM / % Inhibition at 1 μM: 1 μM compound; for inhibition at 10 µM / % Inhibition at 10 μM: 10 μM compound
Description: This is a one step binding assay based on the binding and displacement of the labeled tracer, where compound addition is followed by addition of the anti-GST tagged europium (Eu) as the donor and Alexa Fluor-labeled tracer as the acceptor.
Test compounds were dissolved in dimethylsulfoxide (DMSO) to prepare 10.0 mM stock solutions and diluted to the desired concentration. The final concentration of DMSO in the reaction was 3% (v/v). The assay mixture was prepared by mixing 2 nM of the Eu-Anti-GST Antibody and 5 nM MAP4K-1 enzyme in the Kinase buffer containing 50 mM HEPES (pH 7.5), 10 mM MgCl2, 1 mM EGTA, 0.01% Brij-35 with or without the desired concentration of the compound. The reaction was incubated on ice for 15 min. […] After shaking for 5 min the reaction was further incubated for 1 hour at room temperature and this was kept at 4° C. and read on ARTEMIS reader as per the kit instructions (Thermo). […] The activity was calculated as percent of control reaction. IC50 values were calculated from dose response curve by nonlinear regression analysis using GraphPad Prism software.

Chain of MAP4K-1 enzyme (Q92918 whole entry): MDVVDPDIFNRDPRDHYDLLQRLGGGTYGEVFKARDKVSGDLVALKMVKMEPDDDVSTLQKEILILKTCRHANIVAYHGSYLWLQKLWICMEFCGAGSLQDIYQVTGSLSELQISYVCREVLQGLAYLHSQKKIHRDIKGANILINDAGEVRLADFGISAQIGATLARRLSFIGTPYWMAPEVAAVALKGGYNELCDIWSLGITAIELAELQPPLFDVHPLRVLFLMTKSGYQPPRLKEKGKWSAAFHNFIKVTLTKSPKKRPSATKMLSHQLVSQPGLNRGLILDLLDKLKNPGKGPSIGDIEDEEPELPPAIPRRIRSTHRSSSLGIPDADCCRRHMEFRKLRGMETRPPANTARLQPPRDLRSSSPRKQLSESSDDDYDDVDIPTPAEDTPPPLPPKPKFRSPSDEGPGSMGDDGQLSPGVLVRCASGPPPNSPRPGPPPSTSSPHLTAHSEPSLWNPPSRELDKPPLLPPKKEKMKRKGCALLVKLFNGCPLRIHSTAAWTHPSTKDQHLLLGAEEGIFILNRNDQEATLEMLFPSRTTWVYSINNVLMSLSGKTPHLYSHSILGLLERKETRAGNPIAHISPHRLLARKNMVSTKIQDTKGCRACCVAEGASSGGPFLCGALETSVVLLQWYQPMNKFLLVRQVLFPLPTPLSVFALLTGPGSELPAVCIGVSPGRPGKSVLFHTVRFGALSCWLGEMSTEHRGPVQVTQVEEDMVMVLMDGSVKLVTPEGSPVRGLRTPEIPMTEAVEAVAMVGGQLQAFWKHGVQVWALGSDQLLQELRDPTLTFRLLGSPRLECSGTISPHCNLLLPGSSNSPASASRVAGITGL

SMILES | inhibition at 1 µM | inhibition at 10 µM | IC50 (IC50 (nM)) | IC50 (read-out: IC50) | also measured
COc1cc2c(cc1Nc1ncc(Cl)c(Nc3ccc(OS(=O)(=O)F)cc3P(C)(C)=O)n1)C(C)N(C)CC2 (single isomer, unassigned; isomer 1) [Example 29, 4-((5-Chloro-2-((6-methoxy-1,2-dimethyl-1,2,3,4-tetrahydroisoquinolin-7-yl)amino)pyrimidin-4-yl)amino)-3-(dimethylphosphoryl)phenyl sulfofluoridate dihydrochloride (Isomer 1)] | 76.5% | 76.9% | < 50 nM | – | –
COc1cc2c(cc1Nc1ncc(Cl)c(Nc3ccc(O)cc3P(C)(C)=O)n1)CN(C)CC2 [Example 1, (2-((5-Chloro-2-((6-methoxy-2-methyl-1,2,3,4-tetrahydroisoquinolin-7-yl)amino)pyrimidin-4-yl)amino)-5-hydroxyphenyl)dimethylphosphineoxide dihydrochloride] | 87.2% | 86.5% | – | < 50 nM | –
COc1cc2c(cc1Nc1ncc(Cl)c(Nc3cnc(OS(=O)(=O)F)cc3P(C)(C)=O)n1)CN(C)CC2 [Example 37, 5-((5-Chloro-2-((6-methoxy-2-methyl-1,2,3,4-tetrahydroisoquinolin-7-yl)amino)pyrimidin-4-yl)amino)-4-(dimethylphosphoryl)pyridin-2-ylsulfofluoridate] | – | – | – | < 50 nM | % Inhibition at 1 μM: 84.45%; % Inhibition at 10 μM: 84.73%
COc1cc2c(cc1Nc1ncc(Cl)c(Nc3ccc(C(F)(F)F)cc3P(C)(C)=O)n1)CN(C)CC2 [Example 55, (2-((5-Chloro-2-((6-methoxy-2-methyl-1,2,3,4-tetrahydroisoquinolin-7-yl)amino)pyrimidin-4-yl)amino)-5-(trifluoromethyl)phenyl) dimethylphosphine oxide] | 94.6% | 95.3% | – | < 50 nM | –
CCN1CCc2cc(OC)c(Nc3ncc(Cl)c(Nc4ccc(OS(=O)(=O)F)cc4P(C)(C)=O)n3)cc2C1 [Example 9, 4-((5-Chloro-2-((2-ethyl-6-methoxy-1,2,3,4-tetrahydroisoquinolin-7-yl)amino)pyrimidin-4-yl)amino)-3-(dimethylphosphoryl) phenyl sulfofluoridate dihydrochloride] | 78.5% | 78.8% | < 50 nM | – | –
COc1cc2c(cc1Nc1ncc(Cl)c(Nc3ncc(OS(=O)(=O)F)cc3P(C)(C)=O)n1)C(C)N(C)CC2 (single isomer, unassigned; isomer 1) [Example 23, 6-((5-Chloro-2-((6-methoxy-1,2-dimethyl-1,2,3,4-tetrahydroisoquinolin-7-yl)amino)pyrimidin-4-yl)amino)-5-(dimethylphosphory)pyridin-3-yl sulfofluoridate dihyrochloride (Isomer 1)] | 86.1% | 89.6% | 50 to 100 nM | – | –
COc1cc2c(cc1Nc1ncc(Cl)c(Nc3cc(OS(=O)(=O)F)ccc3P(C)(C)=O)n1)C(C)N(C)CC2 (single isomer, unassigned; isomer 2) [Example 32, 3-((5-Chloro-2-((6-methoxy-1,2-dimethyl-1,2,3,4-tetrahydroisoquinolin-7-yl)amino)pyrimidin-4-yl)amino)-4-(dimethylphosphoryl)phenyl sulfofluoridate dihydrochloride (Isomer 2)] | – | – | – | – | IC50: < 50 nM; % Inhibition at 1 μM (1 µM): 84.51%; % Inhibition at 10 μM (10 µM): 89.25%
COc1cc2c(cc1Nc1ncc(Cl)c(Nc3ccc(OC(F)(F)F)cc3P(C)(C)=O)n1)CN(C)CC2 [Example 47] | 91.4% | 88% | – | < 50 nM | –
COc1cc2c(cc1Nc1ncc(Cl)c(Nc3ccc(C(=O)N(C)CCF)cc3P(C)(C)=O)n1)CN(C)CC2 [Example 52, 4-((5-Chloro-2-((6-methoxy-2-methyl-1,2,3,4-tetrahydroisoquinolin-7-yl)amino)pyrimidin-4-yl)amino)-3-(dimethylphosphoryl)-N-(2-fluoroethyl)-N-methyl benzamide] | 88.2% | 85.5% | – | < 50 nM | –
COc1cc2c(cc1Nc1ncc(Cl)c(Nc3ccc(C(F)F)cc3P(C)(C)=O)n1)CN(C)CC2 [Example 54, (2-((5-Chloro-2-((6-methoxy-2-methyl-1,2,3,4-tetrahydroisoquinolin-7-yl)amino)pyrimidin-4-yl)amino)-5-(difluoromethyl)phenyl)dimethylphosphine oxide] | 93.4% | 93.7% | – | < 50 nM | –
COc1cc2c(cc1Nc1ncc(Cl)c(Nc3ccc(OS(=O)(=O)F)cc3P(C)(C)=O)n1)CN(C)C(C)C2 (single isomer, unassigned; isomer 2) [Example 34, 4-((5-Chloro-2-((6-methoxy-2,3-dimethyl-1,2,3,4-tetrahydroisoquinolin-7-yl)amino)pyrimidin-4-yl)amino)-3-(dimethylphosphoryl)phenyl sulfofluoridate dihydrochloride (Isomer 2)] | – | – | – | – | IC50: < 50 nM; % Inhibition at 1 μM (1 µM): 84.26%; % Inhibition at 10 μM (10 µM): 86.64%
COc1cc2c(cc1Nc1ncc(Cl)c(Nc3cc(OS(=O)(=O)F)ccc3P(C)(C)=O)n1)CN(C)C(C)C2 (single isomer, unassigned; isomer 2) [Example 36, 3-((5-Chloro-2-((6-methoxy-2,3-dimethyl-1,2,3,4-tetrahydroisoquinolin-7-yl)amino)pyrimidin-4-yl)amino)-4-(dimethylphosphoryl)phenyl sulfofluoridate dihydrochloride (Isomer 2)] | – | – | – | – | IC50: < 50 nM; % Inhibition at 1 μM (1 µM): 85.29%; % Inhibition at 10 μM (10 µM): 83.76%
COc1cc2c(cc1Nc1ncc(Cl)c(Nc3ccc(N(C)S(=O)(=O)F)cc3P(C)(C)=O)n1)CN(C)CC2 [Example 43, 4-((5-Chloro-2-((6-methoxy-2-methyl-1,2,3,4-tetrahydroisoquinolin-7-yl)amino)pyrimidin-4-yl)amino)-3-(dimethylphosphoryl)phenyl)(methyl)sulfamoylfluoride dihydrochloride] | 80% | 80.5% | < 50 nM | – | –
COc1cc2c(cc1Nc1ncc(Cl)c(Nc3c(C)cc(OS(=O)(=O)F)cc3P(C)(C)=O)n1)CN(C)CC2 [Example 15, 4-((5-Chloro-2-((6-methoxy-2-methyl-1,2,3,4-tetrahydroisoquinolin-7-yl)amino)pyrimidin-4-yl)amino)-3-(dimethylphosphoryl)-5-methylphenyl sulfurofluoridate dihydrochloride] | 78.6% | 91.8% | > 500 nM | – | –
COc1cc2c(cc1Nc1ncc(Cl)c(Nc3ccc(OS(=O)(=O)F)cc3P(C)(C)=O)n1)C(=O)N(C)CC2 [Example 17, 4-((5-Chloro-2-((6-methoxy-2-methyl-1-oxo-1,2,3,4-tetrahydroisoquinolin-7-yl)amino)pyrimidin-4-yl)amino)-3-(dimethylphosphoryl)phenyl sulfurofluoridatehydrochloride] | 86.6% | 90.2% | < 50 nM | – | –
COc1cc2c(cc1Nc1ncc(Cl)c(Nc3ccc(S(C)(=N)=O)cc3P(C)(C)=O)n1)CN(C)CC2 (stereo not drawn) [Example 58, (2-((5-Chloro-2-((6-methoxy-2-methyl-1,2,3,4-tetrahydroisoquinolin-7-yl)amino)pyrimidin-4-yl)amino)-5-(S-methylsulfonimidoyl)phenyl)dimethylphosphine oxide] | 96.6% | 96.4% | – | < 50 nM | –
